Test results reported in ChEMBL document CHEMBL3259735, “Designing bifunctional NOP receptor-mu opioid receptor ligands from NOP-receptor selective scaffolds. Part II” (Bioorg Med Chem, 2014).
Active and inactive are the calls of the source. No cut-off for these calls is given here.

How the values were obtained:
Mus musculus [1] = test: Toxicity in ICR mouse assessed as rewarding effect by measuring increase in time spent in drug-paired compartment at 1 to 10 mg/kg, sc administered every 2 days for 6 days measured 24 hrs post last dose by conditioned place preference assay; assay type: organism-based; design: dose 1-10 mg/kg, route subcutaneous; settings: in vivo
Mus musculus [2] = test: Toxicity in ICR mouse assessed as effect on global effect at 1 to 10 mg/kg, sc administered every 2 days for 6 days measured 24 hrs post last dose during conditioning training; assay type: organism-based; design: dose 1-10 mg/kg, route subcutaneous; settings: in vivo
Mus musculus [3] = test: Toxicity in ICR mouse assessed as rewarding effect by measuring increase in time spent in drug-paired compartment at 10 mg/kg, sc administered every 2 days for 6 days measured 24 hrs post last dose by conditioned place preference assay; assay type: organism-based; design: dose 10 mg/kg, route subcutaneous; settings: in vivo
Mus musculus [4] = test: Toxicity in ICR mouse assessed as increase in global effect at 10 mg/kg, sc administered every 2 days for 6 days measured 24 hrs post last dose during conditioning training; assay type: organism-based; design: dose 10 mg/kg, route subcutaneous; settings: in vivo
Mus musculus [5] = test: Antinociceptive activity in ICR mouse assessed as thermal-stimulus induced tail flick latency at 3 to 10 mg/kg, sc measured up to 4 hrs relative to control; assay type: functional, organism-based

CCC1C(=O)N(C2CCN([C@H]3CC[C@@H]4CCCc5cccc3c54)CC2)c2ccccc21 (mixture of isomers)
Activity (Mus musculus [1]): Non-toxic | Activity (Mus musculus [2]): Non-toxic

CN1CC[C@]23c4c5ccc(O)c4O[C@H]2[C@@H](O)C=C[C@H]3[C@H]1C5 [MORPHINE]
Activity (Mus musculus [3]): Toxic | Activity (Mus musculus [4]): Toxic | Activity (Mus musculus [5]): Active
